Where two headings read alike, the source gives them in different places.
Experiments:
liver stage = conditions: cited from earlier work
HepG2 = conditions: cited from earlier work; for CC50: read-out: HepG2 PBox CC50 µM
[1] = tested on: NF54-pfs16-LUC-GFP stage IV gametocytes; assay: Plasmodium falciparum late stage gametocyte (LSG) image-based assay; assay type: cell-based; conditions: for IC50: Plasmodium falciparum
[2] = tested on: T. b. brucei 427 bloodstream trypanosomes; assay: T. b. brucei resazurin viability assay; assay type: cell-based, Trypanosoma brucei brucei; conditions: Trypanosoma brucei
P. falciparum ABS = conditions: cited from earlier work; for EC50: ChEMBL Data
[3] = tested on: P. falciparum stage V gametocytes; conditions: cited from earlier work; for IC50 / PF stage V GAMS PBox IC50 µM: stage V gametocytes; for IC50: read-out: PF stage V GAMS PBox IC50; for activity against gametocytes (stage V), PBox supporting information: ref Pbox supporting information
[4] = tested on: Plasmodium falciparum 3D7 asexual blood stage; assay: microbe, parasite or virus in culture
HEK293 cells = assay: HEK293 resazurin cell cytotoxicity assay; conditions: Homo sapiens
T. brucei rhodesiense = conditions: ref Pbox supporting information; read-out: T .b. rohdensie Pbox IC50; cited from earlier work
T. brucei brucei = conditions: ref Pbox supporting information; read-out: T.b. brucei Pbox IC50; cited from earlier work
[5] = tested on: T. cruzi C4 β-galactosidase reporter parasite in MRC 5SV2 host cells; conditions: cited from earlier work
[6] = tested on: L. donovani MHOM/IN/80/DD8 intracellular amastigotes; assay: Leishmania donovani intracellular amastigote assay in THP-1 cells; assay type: cell-based; conditions: Leishmania donovani, THP-1, intracellular amastigotes
[7] = tested on: L. infanium (macrophages); design: method as in Pbox supporting information; conditions: ref Pbox supporting information; cited from earlier work
[8] = tested on: T. cruzi intracellular amastigotes; assay: Intracellular anti-Trypanosoma cruzi image-based assay (amastigotes); assay type: cell-based
[9] = liver stage, ref Pathogen Box supporting information, read-out: LIVER STAGE Pbox IC50
[10] = HepG2 CC50, ref Pathogen Box supporting information
[11] = NITD, read-out: NITD (ref 94) EC50
[12] = TCMDC, read-out: TCMDC (ref 93) EX50
[13] = Pf 3D7, ref Pathogen Box supporting information, read-out: Pf 3D7 Pbox IC50
[14] = ref Pathogen Box supporting information
[15] = NF54, read-out: Pf Stage IV GAMS Discovery Biology IC50 µM, stage IV gametocytes, Discovery Biology
[16] = 3D7, read-out: Pf 3D7 Discovery Biology IC50 µM, P. falciparum 3D7 asexual blood stage, Discovery Biology
[17] = ref Pbox supporting information
[18] = read-out: T b.brucei Discovery Biology IC50
[19] = HEK293, read-out: HEK % Inhibition 20uM/IC50 Discovery Biology
[20] = HEK293, read-out: HEK % Inhibition 20uM/IC50 Discovery Biology (IA)
[21] = ref PBox supporting information
[22] = NF54, read-out: Pf Stage IV GAMS Discovery Biology IC50 µM, stage IV gametocytes
[23] = 3D7, read-out: Pf 3D7 Discovery Biology IC50 µM, P. falciparum 3D7 asexual blood stage
[24] = P. falciparum 3D7, ref PBox supporting information, read-out: Pf 3D7 Pbox IC50
[25] = HEK293, read-out: HEK % Discovery Biology IC50
[26] = ref Pbox supporting information, read-out: T. cruzi Pbox IC50
[27] = some values marked *, read-out: L, donovani Discovery Biology IC50

Compound	IC50 (liver stage; [9]) [nM]	CC50 (HepG2; [10]) [µM]	activity in the Discovery Biology stage IV gametocyte (LSG) assay [1]	EC50 (P. falciparum ABS; [12]) [nM]	IC50 (P. falciparum ABS; [13]) [nM]	IC50 [3, 14] [nM]	IC50 [1, 15] [µM]	IC50 [4, 16] [µM]	activity against gametocytes (stage V), PBox supporting information [3]	IC50 (HEK293 cells; [20]) [µM]	IC50 [1, 22] [µM]	IC50 (P. falciparum ABS; [24]) [nM]	IC50 [3, 21] [nM]	further results
CN(C)c1cc(NC(=O)Nc2ccccc2)c2ccccc2n1 [MMV006901]	> 10000	> 10	only moderately active	410	600	3130	–	–	–	–	–	–	–	IC50 ([2]; PBox compounds, read-out: IC50 T. brucei brucei (Discovery Biology)): 3360 nM; EC50 (P. falciparum ABS; [11]): 150 nM
COc1ccc(-c2cnc3ccc(NCc4ccc(S(N)(=O)=O)cc4)nn23)cn1 [MMV010545]	6800	> 10	–	870	490	1030	1.17	0.58	–	–	–	–	–	–
Cc1cc(Nc2ccc(C(F)(F)F)cc2)n2ccnc2n1 [MMV011229]	–	–	did not find this compound to be active	–	–	–	–	–	ktba	–	–	–	–	activity against liver stage, PBox supporting information (liver stage; [17]): ktba; IC50 (P. falciparum ABS; ref Pbox supporting information, read-out: ABS activity, PBox supporting information): 380 nM
Cc1ccc(NC(=O)c2nc[nH]c2C(=O)Nc2nc3ccccc3[nH]2)c(C)c1 [MMV011903]	> 10000	> 10	–	–	360	> 8300	–	–	–	–	–	–	–	EC50 (P. falciparum ABS; [11]): 730 nM
Cc1ccc2c(c1C)NC(=O)C21NN=C(c2ccccc2)S1 (stereo not drawn) [MMV019189]	880	> 7.5	–	750	1130	900	1.97	2.28	–	–	–	–	–	IC50 [2, 18]: 4680 nM
CCN(CC)S(=O)(=O)c1ccc(Cl)c(C(=O)Nc2ccc3nc(C)sc3c2)c1 [MMV019721]	1310	> 10	–	800	500	3910	0.79	0.78	–	–	–	–	–	–
COc1cccc(CC(=O)N2CCC(n3c(C)nc4ccc(F)cc43)CC2)c1 [MMV020081]	–	–	demonstrate activity	910	240	310	0.68	0.21	demonstrate activity	–	–	–	–	–
Nc1nccc2ccc(-c3ccc4nccn4c3)cc12 [MMV023233]	–	–	demonstrate activity	100	160	400	3.08	0.11	demonstrate activity	–	–	–	–	inhibition at 20 µM (HEK293 cells; [19]): 74%; IC50 [2, 18]: 3290 nM
NS(=O)(=O)c1cccc(-c2ccc3ncc(N4CCOCC4)nc3c2)c1 [MMV023860]	1820	> 10	–	990	1500	1330	2.13	0.89	–	–	–	–	–	inhibition at 20 µM (HEK293 cells; [19]): 40%
COc1ccc(-c2cnc3ccc(N4CCCC4)nn23)cc1OC [MMV023985]	630	> 10	–	770	700	410	5.83	1.99	–	–	–	–	–	–
O=C(Nc1ccccc1)c1ccc(-c2cc3ccncc3cc2OC2CCNCC2)s1 [MMV024035]	7370	> 7.5	–	650	570	2280	4.48	0.31	–	–	–	–	–	IC50 (HEK293 cells; HEK293, read-out: HEK % Discovery Biology IC50 uM): 6.67 µM; IC50 [2, 18]: 2720 nM
CCn1ncc2c(NC3CCOCC3)c(CNC(=O)c3ccnn3C)c(C)nc21 [MMV026356]	–	–	–	–	–	–	–	–	–	> 20	0.74	280	240	IC50 (liver stage; [17]): 1600 nM; CC50 (HepG2; [21]): > 10 µM; IC50 [4, 23]: 0.27 µM; EC50 (P. falciparum ABS; P. falciparum, read-out: TCMDC (ref 93) EX50): 530 nM
Cc1cc(C)nc(-n2nc(C)cc2Nc2ccccc2)n1 [MMV062221]	–	–	demonstrate activity	–	–	–	–	–	demonstrate activity	> 20	0.57	> 2000	220	–
N#Cc1ccc(-c2cnc(N)c(-c3ccc(C(N)=O)cc3)n2)cc1 [MMV085499]	–	–	–	–	–	–	–	–	–	> 20	0.55	95	140	IC50 (liver stage; [17]): 280 nM; CC50 (HepG2; [21]): > 10 µM; IC50 [4, 23]: 0.19 µM; EC50 (P. falciparum ABS; P. falciparum, read-out: NITD (ref 94) EC50): 60 nM
c1ccc(-c2cc(N3CCCCC3)c3ccccc3n2)nc1 [MMV560185]	–	–	demonstrate activity	–	–	–	–	–	demonstrate activity	> 20	0.71	> 2000	510	IC50 (liver stage; [17]): 9700 nM; CC50 (HepG2; [21]): > 10 µM
O=C(NCCN1CCCC1)c1cc(NCCN2CCOCC2)nc2ccc(Cl)cc12 [MMV634140]	–	–	–	–	–	–	–	–	–	> 20	0.39	100	–	LIVER STAGE Pbox IC50 µM (liver stage; [17]): KTBA; IC50 [4, 23]: 0.09 µM; PF stage V GAMS PBox IC50 µM [3, 21]: KTBA
O=C(NCCN1CCCC1)c1cc(NCCCCN2CCC(F)(F)CC2)nc2ccc(Cl)cc12 [MMV667494]	–	–	–	–	–	–	–	–	–	> 20	0.12	7	–	LIVER STAGE Pbox IC50 µM (liver stage; [17]): KTBA; IC50 ([4]; 3D7, read-out: Pf 3D7 Discovery Biology IC50, P. falciparum 3D7 asexual blood stage, nM): < 0.01 µM; PF stage V GAMS PBox IC50 µM [3, 21]: KTBA
CNC(=O)c1nn(C)c2c1C(C)(C)Cc1cnc(Nc3ccc(N4CCN(C)CC4)cc3)nc1-2 [MMV676602]	–	–	–	–	–	–	–	–	–	–	–	–	–	IC50 (T. brucei rhodesiense): < 130 nM; IC50 (HEK293 cells; [25]): 1.3 µM; IC50 (T. brucei brucei): < 130 nM; IC50 [5, 26]: 1050 nM; HepG2 PBox CC20 (HepG2): <260 nM; IC50 ([4]; 3D7, read-out: Pf 3D7 Discovery Biology IC50, P. falciparum 3D7 asexual blood stage): 3.17 µM; IC50 [6, 27]: 1430 nM; IC50 [2, 18]: 170 nM; IC50 [7]: 850 nM
N=C(N)Nc1ccc(-c2ccc(-c3ccc(NC(=N)N)c(Cl)c3)o2)cc1Cl [MMV688271]	–	–	–	–	–	–	–	–	–	–	–	–	–	IC50 (T. brucei rhodesiense): 200 nM; activity against T. cruzi in the Discovery Biology assay [8]: lack of activity; activity against T. cruzi at 8 μM in the Discovery Biology assay ([8]; 8 μM): no activity; IC50 (HEK293 cells; [19]): > 20 µM; IC50 (T. brucei brucei): 600 nM; IC50 ([5]; 7 days exposure, ref PBox supporting information, read-out: T. cruzi IC50 in the PBox supporting information file): < 1000 nM; IC50 [5, 26]: 660 nM; HepG2 PBox CC20 (HepG2; HepG2, ref PBox supporting information): 13500 nM; IC50 ([4]; 3D7, read-out: Antiplasmodial IC50 (ABS), PBox compounds, P. falciparum 3D7): 1.21 µM; IC50 [6, 27]: 3310 nM; IC50 [2, 18]: 520 nM; IC50 [7]: 10200 nM
O=C(Nc1ccc(F)c(-c2nc3cc(-c4ccccc4)cnc3[nH]2)c1)N1CCCC1 [MMV688372]	–	–	–	–	–	–	–	–	–	–	–	–	–	IC50 (T. brucei rhodesiense): < 130 nM; IC50 ([8]; Trypanosoma cruzi, intracellular amastigotes, read-out: T cruzi Discovery Biology IC50): 190 nM; IC50 (HEK293 cells; [25]): 4.6 µM; IC50 (T. brucei brucei): < 130 nM; IC50 [5, 26]: < 130 nM; IC50 ([6]; PBox compounds, read-out: IC50 L. donovani (Discovery Biology)): 1150 nM; IC50 [6, 27]: 1510 nM; IC50 [2, 18]: 20 nM; IC50 [7]: 160 nM
O=C(Nc1nc(-c2ccccn2)cs1)C1CC1c1ccccc1F (stereo not drawn) [MMV1028806]	–	–	demonstrate activity	–	–	–	–	–	demonstrate activity	> 20	0.42	> 2000	520	–
CCCn1c(NC(=O)c2ccc3ccccc3n2)nc2ccccc21 [MMV1030799]	–	–	demonstrate activity	–	–	–	–	–	demonstrate activity	> 20	2.5	> 2000	560	IC50 [4, 23]: 2.59 µM
Cc1ccc(-c2nc(CN(Cc3ccccn3)C(C)C)cs2)o1 [MMV1088520]	–	–	–	–	–	–	–	–	–	–	0.67	> 2000	450	inhibition at 20 µM (HEK293 cells; [19]): 79%

Source: article PMC5571359, “Screening the Medicines for Malaria Venture Pathogen Box across Multiple Pathogens Reclassifies Starting Points for Open-Source Drug Discovery” (Antimicrobial Agents and Chemotherapy, 2017)
